These results are taken from US7238701B2, “Substituted tetrahydrobenzothienopyrimidinamine compounds useful for treating hyper-proliferative disorders” (Bayer Pharmaceuticals Corporation, priority 2003, dated 2007).

Experiment [1] relates to BT474 (human breast carcinoma). Kind of experiment: In vitro tumor cell proliferation assay (Cell Titer-Glo luminescent cell viability), BT474 cells. The experiment is classed as cell-based. The conditions noted are these: BT-474, 72 hours drug exposure, 10% Fetal Bovine Serum, ATP luminescence readout, read-out: IC50 (50% inhibition of cell proliferation). An excerpt: (§1) In vitro Tumor Cell Proliferation Assay
(§2) The tumor cell proliferation assay used to test the compounds of the present invention involves a readout called Cell Titer-Glow® Luminescent Cell Viability Assay developed by Promega (Cunningham, B A “A Growing Issue: Cell Proliferation Assays, Modern kits ease quantification of cell growth” The Scientist 2001, 15(13), 26, and Crouch, S P et al., “The use of ATP bioluminescence as a measure of cell proliferation and cytotoxicity” Journal of Immunological Methods 1993, 160, 81–88), that measures inhibition of cell proliferation. Generation of a luminescent signal corresponds to the amount of ATP present, which is directly proportional to the number of metabolically active (proliferating) cells.
(§3) A431cells (human epidermoid carcinoma, ATCC # HTB-20) and BT474 (human breast carcinoma, ATCC # CRL-1555) were plated at a density of 2.5×10^3 cells/well in 96 well black-clear bottom tissue culture plates in RPMI media with 10% Fetal Bovine Serum and incubated at 37° C. Twenty-four hours later, test compounds are added at a final concentration range from as high 100 μM to as low 64 pM depend on the activities of the tested compounds in serial dilutions at a final DMSO concentration of 0.1%. Cells were incubated for 72 hours at 37° C. in complete growth media after addition of the test compound. After 72 hours of drug exposure, the plates were equilibrated to room temperature for approximately 30 min. Then, using a Promega Cell Titer Glo Luminescent® assay kit, lysis buffer containing 100 microliters of the enzyme luciferase and its substrate, luciferin mixture, was added to each well. The plates were mixed for 2 min on orbital shaker to ensure cell lysis and incubated for 10 min at room temperature to stabilize luminescence signal. The samples were read on VICTOR 2 using Luminescence protocol, and analyzed with Analyze5 software to generate IC50 values.
A general note: ATP-based viability assays read luminescence as a measure of living cells.

The test system of experiment [2] is A431cells (human epidermoid carcinoma). Nature of the experiment: In vitro tumor cell proliferation assay (Cell Titer-Glo luminescent cell viability), A431 cells. The experiment is classed as cell-based. The settings on record: A-431, 72 h, 72 hours drug exposure, 10% Fetal Bovine Serum, ATP luminescence readout, read-out: IC50 (50% inhibition of cell proliferation).
Source text: as §1, §2, §3

On to `COCCC1CCc2c(sc3ncnc(Nc4cccc(Br)c4)c23)C1` (stereo not drawn) [Example 90, N-(3-bromophenyl)-7-(2-methoxyethyl)-5,6,7,8-tetrahydro[1]benzothieno[2,3-d]pyrimidin-4-amine], for which the IC50 in experiment [1] and in experiment [2] was less than 50 µM throughout. With `CNCCC1CCc2c(sc3ncnc(Nc4ccc5c(cnn5Cc5ccccc5)c4)c23)C1` (stereo not drawn) [Example 229, N-(1-benzyl-1H-indazol-5-yl)-7-[2-(methylamino)ethyl]-5,6,7,8-tetrahydro[1]benzothieno[2,3-d]pyrimidin-4-amine], the IC50 in experiment [1] was less than 5 µM; in experiment [2] it was less than 50 µM. Consider `COCCN1CCN(CCC2CCc3c(sc4ncnc(Nc5cccc(Br)c5)c34)C2)CC1` (stereo not drawn) [Example 93, N-(3-bromophenyl)-7-{2-[4-(2-methoxyethyl)-1-piperazinyl]ethyl}-5,6,7,8-tetrahydro[1]benzothieno[2,3-d]pyrimidin-4-amine], for which the IC50 in experiment [1] and in experiment [2] was less than 5 µM each time. In the case of `O=C(CC1CCc2c(sc3ncnc(Nc4ccc(OCc5ccc(F)cc5)c(Cl)c4)c23)C1)N1CCCC1` (stereo not drawn) [Example 149, N-{3-chloro-4-[(4-fluorobenzyl)oxy]phenyl}-7-(2-oxo-2-pyrrolidin-1-ylethyl)-5,6,7,8-tetrahydro[1]benzothieno[2,3-d]pyrimidin-4-amine], the IC50 in experiment [1] and in experiment [2] was less than 50 µM each time. In the case of `Fc1cccc(COc2ccc(Nc3ncnc4sc5c(c34)CCC(CCNCCN3CCOCC3)C5)cc2Cl)c1` (stereo not drawn) [Example 166, N-{3-chloro-4-[(3-fluorobenzyl)oxy]phenyl}-7-{2-[(2-morpholin-4-ylethyl)amino]ethyl}-5,6,7,8-tetrahydro[1]benzothieno[2,3-d]pyrimidin-4-amine], the IC50 was less than 5 µM in experiment [1] and less than 50 µM in experiment [2]. For `CN1CCN(C(=O)CC2CCc3c(sc4ncnc(Nc5ccc(OCc6ccc(F)cc6)c(Cl)c5)c34)C2)CC1` (stereo not drawn) [Example 150, N-{3-chloro-4-[(4-fluorobenzyl)oxy]phenyl}-7-[2-(4-methylpiperazin-1-yl)-2-oxoethyl]-5,6,7,8-tetrahydro[1]benzothieno[2,3-d]pyrimidin-4-amine], the IC50 in experiment [1] and in experiment [2] was less than 5 µM in each case.

For the compound `COCCN(C)CC1CCc2c(sc3ncnc(Nc4cccc(Br)c4)c23)C1` (stereo not drawn) [Example 36, N-(3-bromophenyl)-7-{[(2-methoxyethyl)(methyl)amino]methyl}-5,6,7,8-tetrahydro[1]benzothieno[2,3-d]pyrimidin-4-amine], in experiment [1], the IC50 was less than 5 µM.

As to `CN1CCN(C(=O)C2CCc3c(sc4ncnc(Nc5ccc(OCc6ccccc6)cc5)c34)C2)CC1` (stereo not drawn) [Example 43, N-[4-(benzyloxy)phenyl]-7-[(4-methyl-1-piperazinyl)carbonyl]-5,6,7,8-tetrahydro[1]benzothieno[2,3-d]pyrimidin-4-amine], the IC50 in experiment [1] is less than 5 µM. Take `CS(=O)(=O)OCCC1CCc2c(sc3ncnc(Nc4ccc(OCc5ccc(F)cc5)c(Cl)c4)c23)C1` (stereo not drawn) [Example 156, 2-[4-({3-chloro-4-[(4-fluorobenzyl)oxy]phenyl}amino)-5,6,7,8-tetrahydro[1]benzothieno[2,3-d]pyrimidin-7-yl]ethyl methanesulfonate]: in experiment [1], the IC50 is less than 5 µM. Consider `Cc1ccc(Nc2ncnc3sc4c(c23)CCC(C(=O)O)C4)cc1O` (stereo not drawn) [Example 46, 4-[(3-hydroxy-4-methylphenyl)amino]-5,6,7,8tetrahydro[1]benzothieno[2,3-d]pyrimidine-7-carboxylic acid], for which, in experiment [2], the IC50 was less than 50 µM. Turning to `OCCC1CCc2c(sc3ncnc(Nc4ccc(OCc5ccc(F)cc5)c(Cl)c4)c23)C1` (stereo not drawn) [Example 155, 2-[4-({3-chloro-4-[(4-fluorobenzyl)oxy]phenyl}amino)-5,6,7,8-tetrahydro[1]benzothieno[2,3-d]pyrimidin-7-yl]ethanol], the IC50 in experiment [1] is less than 5 µM.

On to `CN1CCN(CC2CCc3c(sc4ncnc(Nc5cccc(Br)c5)c34)C2)CC1` (stereo not drawn) [Example 26, N-(3-bromophenyl)-7-[(4-methyl-1-piperazinyl)methyl]-5,6,7,8-tetrahydro[1]benzothieno[2,3-d]pyrimidin-4-amine], for which the IC50 in experiment [2] was less than 5 µM.
